Measured values: US20120027687A1, “FATTY ACID PROTEIN KINASE C ACTIVATORS AND ANTICOAGULANT FOR THE TREATMENT OF STROKE” (priority 2010, published 2012)

What was measured:
[1] = target: T1, PKCε (Homo sapiens, UniProt Q02156); experiment: PKC assay with purified PKCε; format: biochemical
T1 construct: purchased Calbiochem
T1 sequence (Q02156 1-737): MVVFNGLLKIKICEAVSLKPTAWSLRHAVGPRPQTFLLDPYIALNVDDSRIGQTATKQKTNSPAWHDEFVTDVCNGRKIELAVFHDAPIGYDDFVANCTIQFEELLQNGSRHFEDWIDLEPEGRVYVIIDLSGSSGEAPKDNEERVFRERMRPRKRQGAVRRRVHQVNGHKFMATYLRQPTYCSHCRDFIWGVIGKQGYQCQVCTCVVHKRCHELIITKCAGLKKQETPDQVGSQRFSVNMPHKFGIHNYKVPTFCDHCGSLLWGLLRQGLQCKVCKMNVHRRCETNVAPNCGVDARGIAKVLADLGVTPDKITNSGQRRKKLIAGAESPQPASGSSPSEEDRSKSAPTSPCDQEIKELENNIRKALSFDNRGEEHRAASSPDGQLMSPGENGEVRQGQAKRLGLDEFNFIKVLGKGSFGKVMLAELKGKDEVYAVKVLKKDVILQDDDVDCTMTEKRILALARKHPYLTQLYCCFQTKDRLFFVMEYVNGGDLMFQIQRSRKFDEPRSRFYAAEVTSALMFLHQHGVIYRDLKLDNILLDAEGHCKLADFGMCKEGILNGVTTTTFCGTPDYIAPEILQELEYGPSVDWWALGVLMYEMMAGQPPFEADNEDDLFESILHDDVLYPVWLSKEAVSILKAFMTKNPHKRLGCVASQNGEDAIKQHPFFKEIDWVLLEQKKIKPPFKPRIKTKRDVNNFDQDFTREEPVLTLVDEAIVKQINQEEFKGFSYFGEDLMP
Protocol: PKC assay. […] 0.5 micro Ci[^γ32P]ATP was added. […] The reaction was stopped by spotting the reaction mixtures on 1×2 cm strips of cellulose phosphate paper (Whatman P81) and immediately washing twice for 1 hr in 0.5% H3PO4. The cellulose phosphate strips were counted in a scintillation counter. In some experiments, phosphatidylserine, diacylglycerol, and/or calcium were removed. […]
(§1) To determine their PKC isozyme specificity, fatty acid derivatives were preincubated with purified PKC for five minutes and the PKC activity was measured radiometrically.

[2] = target: T2, PKCα (Homo sapiens, UniProt P17252); experiment: PKC assay with PKCα; format: biochemical; settings: data not shown
T2 construct: purchased Calbiochem
Protocol: PKC assay. Recombinant PKC (1 ng of PKCα or PKCε isoform) was mixed with BR-101 (DCP-LA) in the presence of 10 micromolar histones, 5 mM CaCl2, 1.2 μg/μl phosphatidyl-L-serine, 0.18 μg/μl 1,2-dioctanoyl-sn-glycerol (DAG), 10 mM MgCl2, 20 mM HEPES (pH 7.4), 0.8 mM EDTA, 4 mM EGTA, 4% glycerol, 8 μg/ml aprotinin, 8 μg/ml leupeptin, and 2 mM benzamidine. 0.5 micro Ci[^γ32P]ATP was added. The incubation mixture was incubated for 15 min at 37 degrees in a total volume of 10 microliters. The reaction was stopped by spotting the reaction mixtures on 1×2 cm strips of cellulose phosphate paper (Whatman P81) and immediately washing twice for 1 hr in 0.5% H3PO4. The cellulose phosphate strips were counted in a scintillation counter. In some experiments, phosphatidylserine, diacylglycerol, and/or calcium were removed.
Protein kinase C assay. […] 0.5 Ci [^γ32P]ATP was added and ^32P-phosphoprotein formation was measured by adsorption onto phosphocellulose as described previously. […] PKC activity was measured in the absence of diacylglycerol and phosphatidylserine and PKC δ, ε, η, and μ were measured in the absence of added EGTA and CaCl2, as described by Kanno et al. (J. Lipid Res. 2006, vol. 47, pp. 1146-1150). […]
as §1

[3] = tested on: Endothelin-converting enzyme (ECE); experiment: Endothelin-converting enzyme (ECE) activity in neuroblastoma cells; format: cell-based, human; settings: bryostatin 0.27 nM, BR-101 1 μM, BR-111 1 μM
Protocol: ECE assay. […] neuroblastoma cells were incubated with bryostatin (0.27 nM), BR-101 (DCP-LA) (1 μM), and BR-111 (DHA-CP6) (1 μM). Endothelin-converting enzyme (ECE) was measured fluorimetrically using the method of Johnson and Ahn (Anal. Biochem. (2000), vol. 286, pp. 112-118). A sample of cell homogenate (20 μl) was incubated in 50 mM MES-KOH, pH 6.0, 0.01% C12E10 (polyoxyethylene-10-lauryl ether), and 15 μM McaBK2 (7-Methoxycoumarin-4-acetyl [Ala7-(2,4-Dinitrophenyl)Lys9]-bradykinin trifluoroacetate salt) (Sigma-Aldrich). After 60 min at 37° C., the reaction was quenched by adding trifluoroacetic acid to 0.5%. The sample was diluted to 1.4 ml with water and the fluorescence was measured at ex=334 nm, em=398 nm.

CCCCCC1CC1CC1CC1CCCCCCCC(=O)O (centres unmarked) [BR-101, 2-[(2-pentylcyclopropyl)methyl]cyclopropaneoctanoic acid]
activation of PKCε ([1]; 10 nM, lowest concentration tested): 2.75 fold
activation of PKCε ([1]; at 10 μM): effective activator
effect on PKCα at higher concentrations ([2]; 50-100 μM): activated
effect on PKCα [2]: not affected
ECE activity [3]: sustained increase
